{
  "source": "paper PMC9468336",
  "about": "“The choanoflagellate pore-forming lectin SaroL-1 punches holes in cancer cells by targeting the tumor-related glycosphingolipid Gb3” (Communications Biology, 2022)",
  "key": {"[1]": {"biological_target": "T1, hemolytic activity of SaroL-1 on rabbit erythrocytes (Salpingoeca rosetta, UniProt F2UID9)", "T1 sequence (F2UID9 1-329)": "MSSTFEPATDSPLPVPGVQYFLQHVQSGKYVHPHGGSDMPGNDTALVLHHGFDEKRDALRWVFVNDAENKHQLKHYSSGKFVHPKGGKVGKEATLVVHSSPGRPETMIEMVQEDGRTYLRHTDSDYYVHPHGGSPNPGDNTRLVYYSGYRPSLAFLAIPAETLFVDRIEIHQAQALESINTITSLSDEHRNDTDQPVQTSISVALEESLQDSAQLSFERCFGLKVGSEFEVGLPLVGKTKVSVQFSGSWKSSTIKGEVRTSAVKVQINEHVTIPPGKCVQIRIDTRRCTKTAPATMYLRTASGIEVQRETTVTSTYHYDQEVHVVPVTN", "experiment": "Inhibition of hemolytic activity (IHA) of SaroL-1 by carbohydrates", "assay_type": "cell-based", "conditions": "for inhibition: SaroL-1 217 nM, read-out: Mean % inhibition of hemolysis", "method": "Both HA and IHA assays were performed in U-shaped 96-well microtiter plates. In both cases, a control negative experiment was performed with Buffer A added to erythrocyte solution (2% final concentration), and the resulting value was subtracted from all data.\nIHA was performed in U-shaped 96-well microtiter plates. […] 4% rabbit erythrocytes were added to the mixture in a 1:1 ratio and incubated for 1–2 h at 37 °C. The samples were centrifuged, 2600 × g for 15 min at RT, and the absorbance of the supernatant was measured at 540 nm by a Tecan reader."}, "SaroL-1": {"biological_target": "T2, SaroL-1 (Salpingoeca rosetta, UniProt F2UID9)", "T2 construct": "gene PTSG_08235; monomeric in solution", "experiment": "Isothermal titration calorimetry (MicroCal iTC200) at 25 °C in 20 mM Tris/HCl pH 7.5, 100 mM NaCl, ligand titrated into SaroL-1, one-site model with stoichiometry N fixed to 3.", "assay_type": "binding", "method": "Isothermal Titration Calorimetry (ITC)\nITC experiments were performed with MicroCaliTC200 (Malvern Panalytical). Experiments were carried out at 25 °C ± 0.1 °C. SaroL-1 and ligands samples were prepared in Buffer A. The ITC cell contained SaroL-1 in a concentration range from 0.05 mM to 0.16 mM. The syringe contained the ligand solutions in a concentration from 10 to 50 mM. 2 μL of ligands solutions were injected into the sample cell at intervals of 120 s while stirring at 750 rpm. Integrated heat effects were analysed by nonlinear regression using one site binding model (MicroCal PEAQ-ITC Analysis software). The experimental data were fitted to a theoretical curve, which gave the dissociation constant (Kd) and the enthalpy of binding (∆H)."}, "[2]": {"experiment": "Confocal imaging of SaroL-1 binding to FSL-Gb3 GUVs", "conditions": "200 nM fluorescent-labelled SaroL-1, FSL-Gb3 GUVs", "excerpt": "(§1) GUVs were composed of 1,2-dioleoyl-sn-glycero-3-phosphocholine (DOPC), cholesterol (both AvantiPolar Lipids, United States), Atto 647 N 1,2-dioleoyl-sn-glycero-3-phosphoethanolamine (DOPE; Sigma-Aldrich), and one of the following glycolipids at a molar ratio of 64.7:30:0.3:5. The glycolipids are globotriaosylceramide (Gb3, Matreya), FSL-Gb3 (Function-Spacer-Lipid with globotriaosyl saccharide), and corresponding FSL-isoGb3 (Function-Spacer-Lipid with iso-globotriaosyl saccharide) synthetized as previously described[84],[85], FSL-A(tri) (Function-Spacer-Lipid with blood group A trisaccharide; Sigma-Aldrich), FSL-B(tri) (Function-Spacer-Lipid with blood group B trisaccharide; Sigma-Aldrich) or lactosylceramide (LC, Sigma-Aldrich).\n(§2) GUVs were prepared by the electroformation method as earlier described. Briefly, lipids dissolved in chloroform of a total concentration of 0.5 mg/mL were spread on indium tin oxid-covered (ITO) glass slides and dried in a vacuum for at least 1 h or overnight. […]\n(§3) Samples of GUVs and SaroL-1 were imaged using a confocal fluorescence microscope (Nikon Eclipse Ti-E inverted microscope equipped with Nikon A1R confocal laser scanning system, 60x oil immersion objective, NA = 1.49 and four laser lines: 405 nm, 488 nm, 561 nm, and 640 nm). […]"}, "[3]": {"experiment": "Confocal imaging of SaroL-1 binding to Gb3 wt GUVs", "design": "species or system porcine", "conditions": "200 nM fluorescent SaroL-1, Gb3 wt GUVs, compared with FSL-Gb3 GUVs", "excerpt": "as §1, §2, §3"}, "[4]": {"experiment": "Confocal imaging of SaroL-1 binding to FSL-A GUVs", "conditions": "200 nM SaroL-1, FSL-A GUVs", "excerpt": "as §1, §2, §3"}, "[5]": {"experiment": "Confocal imaging of SaroL-1 binding to FSL-B GUVs", "conditions": "200 nM SaroL-1, FSL-B GUVs", "excerpt": "as §1, §2, §3"}, "H1299 cells": {"tested_on": "H1299 cells", "experiment": "Lactate dehydrogenase (LDH) assay", "assay_type": "cell-based, human", "conditions": "271 nM and 1.36 µM SaroL-1, 2 and 4 h", "method": "The human lung epithelial cell line H1299 (American Type Culture Collection, CRL-5803) was cultured in a complete medium, consisting of Roswell Park Memorial Institute (RPMI) medium supplemented with 10% fetal calf serum (FCS) and 2 mM L-glutamine at 37 °C and 5% CO2. Cells were stimulated with different concentrations of SaroL-1 in a complete medium for indicated time points.\nThis assay was used to monitor rapid changes in cell viability following the formation of pores induced by SaroL-1. Prior to running the assay, kit components were assembled according to CyQuant^TM LDH Cytotoxicity assay kit (Invitrogen—Thermo Fisher Scientific) manufacturer´s instructions. 1 × 10^4 cells per well were plated in 100 µL in triplicates in a 96-well plate with a flat bottom and allowed to adhere overnight. […] After 30 min\\ of incubation at room temperature and in absence of light, 50 µL of Stop solution were added to each well and the absorbance of samples was recorded at 490 nm and 680 nm using a BioTek microplate reader. To determine LDH activity, the reference absorbance at […] (background) was subtracted from the 490 nm absorbance values before calculation of % cytotoxicity. % cytotoxicity was calculated according to the following formula = [SaroL-1-treated LDH activity − spontaneous LDH activity]/[maximum LDH activity − spontaneous LDH activity] × 100."}},
  "note": "Read-outs that look alike come from different tables or passages of the source.",
  "data": [
    {"molecule": "O=[N+]([O-])c1ccc(O[C@H]2O[C@H](CO)[C@H](O)[C@H](O)[C@H]2O)cc1", "note": "[PNPG, p-nitrophenyl-α-D-galactopyranoside]", "values": [
      {"measurement": "inhibition of hemolysis (in words)", "setting": "[1]; 10 mM carbohydrate", "value": "complete inhibition"},
      {"measurement": "inhibition", "setting": "[1]; sugar 0.003 mM", "value": 8.15, "unit": "%"},
      {"measurement": "inhibition", "setting": "[1]; sugar 0.006 mM", "value": 10.7, "unit": "%"},
      {"measurement": "inhibition", "setting": "[1]; sugar 0.0125 mM", "value": 12.1, "unit": "%"},
      {"measurement": "inhibition", "setting": "[1]; sugar 0.025 mM", "value": 9.06, "unit": "%"},
      {"measurement": "inhibition", "setting": "[1]; sugar 0.05 mM", "value": 3.85, "unit": "%"},
      {"measurement": "inhibition", "setting": "[1]; sugar 0.1 mM", "value": 3.39, "unit": "%"},
      {"measurement": "inhibition", "setting": "[1]; sugar 0.2 mM", "value": 1.44, "unit": "%"},
      {"measurement": "inhibition", "setting": "[1]; sugar 0.4 mM", "value": 2.69, "unit": "%"},
      {"measurement": "inhibition", "setting": "[1]; sugar 0.8 mM", "value": 8.59, "unit": "%"},
      {"measurement": "inhibition", "setting": "[1]; sugar 1.6 mM", "value": 24.5, "unit": "%"},
      {"measurement": "inhibition", "setting": "[1]; sugar 3.125 mM", "value": 55.9, "unit": "%"},
      {"measurement": "inhibition", "setting": "[1]; sugar 6.25 mM", "value": 90.5, "unit": "%"},
      {"measurement": "inhibition", "setting": "[1]; sugar 12.5 mM", "value": 100, "unit": "%"},
      {"measurement": "inhibition", "setting": "[1]; sugar 25 mM", "value": 100, "unit": "%"},
      {"measurement": "inhibition", "setting": "[1]; sugar 50 mM", "value": 100, "unit": "%"},
      {"measurement": "Kd", "setting": "SaroL-1", "value": 1010, "unit": "µM"}
    ]},
    {"molecule": "SaroL-1: Recombinant pore-forming lectin of Salpingoeca rosetta (UniProt F2UID9, 329 amino acids) with β-trefoil and aerolysin-like domains (protein, left off: His6, N-terminal, state not stated, Recombinant pore-forming lectin of Salpingoeca rosetta (UniProt F2UID9, 329 amino acids) with β-trefoil and aerolysin-like domains) MSSTFEPATDSPLPVPGVQYFLQHVQSGKYVHPHGGSDMPGNDTALVLHHGFDEKRDALRWVFVNDAENKHQLKHYSSGKFVHPKGGKVGKEATLVVHSSPGRPETMIEMVQEDGRTYLRHTDSDYYVHPHGGSPNPGDNTRLVYYSGYRPSLAFLAIPAETLFVDRIEIHQAQALESINTITSLSDEHRNDTDQPVQTSISVALEESLQDSAQLSFERCFGLKVGSEFEVGLPLVGKTKVSVQFSGSWKSSTIKGEVRTSAVKVQINEHVTIPPGKCVQIRIDTRRCTKTAPATMYLRTASGIEVQRETTVTSTYHYDQEVHVVPVTN", "values": [
      {"measurement": "binding to GUVs", "setting": "[2]", "value": "Strong binding"},
      {"measurement": "binding to GUVs", "setting": "[3]", "value": "of the same order"},
      {"measurement": "binding to GUVs", "setting": "[4]", "value": "No binding"},
      {"measurement": "binding to GUVs", "setting": "[5]", "value": "No binding"},
      {"measurement": "LDH release / membrane damage (in words)", "setting": "H1299 cells", "value": "induced acute cytotoxicity"}
    ]}
  ]
}
